Test system: BHK-21 cells
Assay: BHK-21 cell proliferation (cell growth) activity
Assay type: cell-based, hamster
Conditions: 3 days culture, compared with medium control
Procedure: Cell growth activities of the samples were measured as BHK (baby hamster kidney) −21 cell proliferation activity, following the known method (Planta Med., 62,115-118,1996, and others). In detail, BHK-21 cells (1×10^4) were cultured in Eagle's minimum essential medium supplemented with 5% fetal bovine serum and 2 mM glutamine, for 3 days at 37° C. with different concentration (μg/ml) of test samples in 5% CO2/air at pH 7.2. The cells were treated with a mixture of trypsin and 0.02% EDTA solution to detach the cells from each well. The cells were harvested and the numbers of total viable cells were counted. The viability of the cells was determined by the method of dye-exclusion test using 0.4% trypan blue solution. The cell growth activity (%) was determined by comparing with the control cells (medium control).

In the case of O=C1NC(CO)C(=O)N2C[C@H](O)CC12 (stereo partly shown) [Compound 2, 3′-Hydroxymethyl-4-hydroxypyrrolido [1,2-f] 2′, 5′-piperazinedione], the cell growth activity is reported as “showed the cell growth activity”.

Reference: patent publication US6635620B1, “Hydroxyproline derivatives” (Japan Bioproducts Ind. Co., Ltd., priority 1998, dated 2003)
